Our source for the bone increase values is patent US6025467A, “Parathyroid hormone derivatives and their use” (Takeda Chemical Industries, Ltd., priority 1995, dated 2000).

The subject of this assay is Sprangue Dawley rats. In words: Increase in femur bone weight in rats after subcutaneous dosing. In kind it is in vivo, rat. To be noted: dried right femur weight compared with vehicle group. The method, then:
To four-week-old male Sprangue Dawley rats, the compounds synthesized in Example 1 […], and increases in the bone weight in their femurs were compared with that of a group to which a vehicle (0.15M NaCl, 0.001N hydrochloric acid and 2% heat-inactivated rat serum) was given. After administration, their right femurs were taken out, and the tissues around them were removed. Then, the femurs were dried at 100° C. for 3 hours and weighed.

The mark [1] stands for this setting: 4.9 nmol/kg a day subcutaneously for two weeks, four-week-old male rats.

Non-standard residues stand in square brackets, D forms with d. Residues, ends and D or L forms follow the SMILES beside them.

With `CC[C@H](C)[C@H](NC(=O)[C@H](CCC(=O)O)NC(=O)[C@H](CO)NC(=O)[C@@H](NC(=O)[C@@H](N)CO)C(C)C)C(=O)N[C@@H](CCC(N)=O)C(=O)N[C@@H](CC(C)C)C(=O)N[C@@H](CCSC)C(=O)N[C@@H](Cc1c[nH]cn1)C(=O)N[C@@H](CC(=O)O)C(=O)N[C@@H](CCCCN)C(=O)NCC(=O)N[C@@H](CCCCN)C(=O)N[C@@H](Cc1c[nH]cn1)C(=O)N[C@@H](CC(C)C)C(=O)N[C@@H](CC(N)=O)C(=O)N[C@@H](CO)C(=O)N[C@@H](CCSC)C(=O)N[C@@H](CCC(=O)O)C(=O)N[C@@H](CCCNC(=N)N)C(=O)N[C@H](C(=O)N[C@@H](CCC(=O)O)C(=O)N[C@@H](Cc1c[nH]c2ccccc12)C(=O)N[C@@H](CC(C)C)C(=O)N[C@@H](CCCNC(=N)N)C(=O)N[C@@H](CCCCN)C(=O)N[C@@H](CCCCN)C(=O)N[C@@H](CC(C)C)C(=O)N[C@@H](CCC(N)=O)C(=O)N[C@@H](CC(=O)O)C(=O)N[C@H](C(=O)N[C@@H](Cc1c[nH]cn1)C(=O)N[C@@H](CC(N)=O)C(=O)N[C@@H](Cc1ccccc1)C(=O)O)C(C)C)C(C)C` [(1), [Asp^10, Lys^11] hPTH(1-34)] (H-SVSEIQLMHDKGKHLNSMERVEWLRKKLQDVHNF-OH), the bone increase (4.9 nmol/kg a day subcutaneously, continuously administered for 4 weeks) turned out to be 66.6 mg.

In turn, `CC[C@H](C)[C@H](NC(=O)[C@H](CCC(=O)O)NC(=O)[C@H](CO)NC(=O)[C@@H](NC(=O)[C@@H](N)CO)C(C)C)C(=O)N[C@@H](CCC(N)=O)C(=O)N[C@@H](CC(C)C)C(=O)N[C@@H](CCSC)C(=O)N[C@@H](Cc1c[nH]cn1)C(=O)N[C@@H](CCC(=O)O)C(=O)N[C@@H](Cc1ccccc1)C(=O)N[C@H](C)C(=O)N[C@@H](CCCCN)C(=O)N[C@@H](Cc1c[nH]cn1)C(=O)N[C@@H](CC(C)C)C(=O)N[C@@H](CC(N)=O)C(=O)N[C@@H](CO)C(=O)N[C@@H](CCSC)C(=O)N[C@@H](CCC(=O)O)C(=O)N[C@@H](CCCNC(=N)N)C(=O)N[C@H](C(=O)N[C@@H](CCC(=O)O)C(=O)N[C@@H](Cc1c[nH]c2ccccc12)C(=O)N[C@@H](CC(C)C)C(=O)N[C@@H](CCCNC(=N)N)C(=O)N[C@@H](CCCCN)C(=O)N[C@@H](CCCCN)C(=O)N[C@@H](CC(C)C)C(=O)N[C@@H](CCC(N)=O)C(=O)N[C@@H](CC(=O)O)C(=O)N[C@H](C(=O)N[C@@H](Cc1c[nH]cn1)C(=O)N[C@@H](CC(N)=O)C(=O)N[C@@H](Cc1ccccc1)C(=O)O)C(C)C)C(C)C` [(10), [Glu^10, Phe^11, D-Ala^12] hPTH(1-34)] (H-SVSEIQLMHEF[dA]KHLNSMERVEWLRKKLQDVHNF-OH) had a bone increase under setting [1] of 19.4 mg.

`CC[C@H](C)[C@H](NC(=O)[C@H](CCC(=O)O)NC(=O)[C@H](CO)NC(=O)[C@@H](NC(=O)[C@@H](N)CO)C(C)C)C(=O)N[C@@H](CCC(N)=O)C(=O)N[C@@H](CC(C)C)C(=O)N[C@@H](CCSC)C(=O)N[C@@H](Cc1c[nH]cn1)C(=O)N[C@@H](CCC(=O)O)C(=O)N[C@@H](CC(C)C)C(=O)NCC(=O)N[C@@H](CCCCN)C(=O)N[C@@H](Cc1c[nH]cn1)C(=O)N[C@@H](CC(C)C)C(=O)N[C@@H](CO)C(=O)N[C@@H](CO)C(=O)N[C@@H](CCSC)C(=O)N[C@@H](CCC(=O)O)C(=O)N[C@@H](CCCNC(=N)N)C(=O)N[C@H](C(=O)N[C@@H](CCC(=O)O)C(=O)N[C@@H](Cc1c[nH]c2ccccc12)C(=O)N[C@@H](CC(C)C)C(=O)N[C@@H](CCCNC(=N)N)C(=O)N[C@@H](CCCCN)C(=O)N[C@@H](CCCCN)C(=O)N[C@@H](CC(C)C)C(=O)N[C@@H](CCC(N)=O)C(=O)N[C@@H](CC(=O)O)C(=O)N[C@H](C(=O)N[C@@H](Cc1c[nH]cn1)C(=O)N[C@@H](CC(N)=O)C(=O)N[C@@H](Cc1ccccc1)C(=O)O)C(C)C)C(C)C` [(15), [Glu^10, Ser^16] hPTH(1-34)] (H-SVSEIQLMHELGKHLSSMERVEWLRKKLQDVHNF-OH) registered a bone increase under setting [1] of 15.1 mg.
